Experimental data from PubChem BioAssay AID328 (DTP/NCI, 2004).
“And” between values parts separate entries of the source, which are not always exact repeats. Equal values may be shown once. Inconclusive results and toxic doses are left out.

Tested on: BDF1 mice, P388 leukemia ip, median survival T/C
Assay: NCI In Vivo Anticancer Drug Screen. Data for tumor model P388 Leukemia (intraperitoneal) in B6D2F1 (BDF1) mice
Conditions: endpoint: median survival time, higher = longer survival
Procedure, shortened: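 Compound-treated tumour-bearing mice were compared with vehicle-treated controls. Survival was recorded, and the value is the treated-group measurement divided by the control-group measurement (T/C).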

[1] = dose: 100.0 mg/kg/injection, schedule: Q01DX001 (ip), vehicle: saline sonified
[2] = dose: 200.0 mg/kg/injection, schedule: Q01DX001 (ip), vehicle: saline sonified
[3] = dose: 400.0 mg/kg/injection, schedule: Q01DX001 (ip), vehicle: saline sonified
[4] = dose: 100.0 mg/kg/injection, schedule: Q01DX009 (ip), vehicle: Klucel (hydroxypropylcellulose) (HPC)
[5] = dose: 200.0 mg/kg/injection, schedule: Q01DX009 (ip), vehicle: Klucel (hydroxypropylcellulose) (HPC)
[6] = dose: 100.0 mg/kg/injection, schedule: Q01DX009 (ip), vehicle: saline with Tween-80
[7] = dose: 200.0 mg/kg/injection, schedule: Q01DX009 (ip), vehicle: saline with Tween-80
[8] = dose: 400.0 mg/kg/injection, schedule: Q01DX009 (ip), vehicle: saline with Tween-80
[9] = dose: 100.0 mg/kg/injection, schedule: Q04DX003 (ip), vehicle: saline with Tween-80
[10] = dose: 200.0 mg/kg/injection, schedule: Q04DX003 (ip), vehicle: saline with Tween-80
[11] = dose: 50.0 mg/kg/injection, schedule: Q01DX009 (ip), vehicle: saline with Tween-80

SMILES: O=C1c2ccccc2C(=O)N1c1cc(OCc2ccccc2)cc(OCc2ccccc2)c1
- T/C (dose: 0.78 mg/kg/injection, schedule: Q01DX009 (ip), vehicle: water): 99 % of control and 103 % of control
- T/C (dose: 1.56 mg/kg/injection, schedule: Q01DX009 (ip), vehicle: water): 96 % of control and 101 % of control
- T/C (dose: 3.12 mg/kg/injection, schedule: Q01DX009 (ip), vehicle: water): 105 % of control and 120 % of control
- T/C (dose: 6.25 mg/kg/injection, schedule: Q01DX009 (ip), vehicle: water): 96 % of control
- T/C (dose: 12.5 mg/kg/injection, schedule: Q01DX009 (ip), vehicle: water): 95 % of control and 99 % of control and 112 % of control
- T/C (dose: 25.0 mg/kg/injection, schedule: Q01DX009 (ip), vehicle: water): 99 % of control and 105 % of control
- T/C (dose: 50.0 mg/kg/injection, schedule: Q01DX009 (ip), vehicle: water): 89 % of control and 117 % of control
- T/C (dose: 50.0 mg/kg/injection, schedule: Q04DX003 (ip), vehicle: water): 94 % of control
- T/C (dose: 100.0 mg/kg/injection, schedule: Q01DX009 (ip), vehicle: water): 96 % of control
- T/C (dose: 100.0 mg/kg/injection, schedule: Q04DX003 (ip), vehicle: water): 99 % of control
- T/C (dose: 200.0 mg/kg/injection, schedule: Q01DX009 (ip), vehicle: water): 88 % of control and 115 % of control
- T/C (dose: 200.0 mg/kg/injection, schedule: Q04DX003 (ip), vehicle: water): 90 % of control
- T/C (dose: 400.0 mg/kg/injection, schedule: Q01DX009 (ip), vehicle: water): 101 % of control
- T/C (dose: 400.0 mg/kg/injection, schedule: Q04DX003 (ip), vehicle: water): 99 % of control

SMILES: OC[C@@H](O)[C@@H](O)CO
- T/C (dose: 100.0 mg/kg/injection, schedule: Q01DX010 (ip), vehicle: saline): 90 % of control
- T/C (dose: 400.0 mg/kg/injection, schedule: Q01DX010 (ip), vehicle: saline): 110 % of control

SMILES: N=[N+]=CC(=O)CC(N)C(=O)O (stereo unspecified)
- T/C [1]: 95 % of control
- T/C [2]: 86 % of control
- T/C [3]: 95 % of control

SMILES: O=[N+]([O-])c1ccc(OCc2ccc(S(=O)(=O)F)c(Cl)c2)c(Cl)c1
- T/C (dose: 100.0 mg/kg/injection, schedule: Q01DX001 (ip), vehicle: saline): 115 % of control
- T/C [4]: 102 % of control
- T/C (dose: 200.0 mg/kg/injection, schedule: Q01DX001 (ip), vehicle: saline): 100 % of control
- T/C [5]: 100 % of control
- T/C (dose: 400.0 mg/kg/injection, schedule: Q01DX001 (ip), vehicle: saline): 103 % of control
- T/C (dose: 400.0 mg/kg/injection, schedule: Q01DX009 (ip), vehicle: Klucel (hydroxypropylcellulose) (HPC)): 103 % of control

SMILES: CC(=O)CC(C)=O.CC(=O)CC(C)=O.Cc1c[nH]cn1.O=N[O-].[Co]
- T/C (dose: 100.0 mg/kg/injection, schedule: Q04DX002 (ip), vehicle: saline with Tween-80): 107 % of control
- T/C (dose: 200.0 mg/kg/injection, schedule: Q04DX002 (ip), vehicle: saline with Tween-80): 124 % of control

SMILES: CCNC(=NC)c1ccc(NC(=O)c2ccc(C(=O)Nc3ccc(C(=NC)NCC)cc3)cc2)cc1
- T/C (dose: 3.9 mg/kg/injection, schedule: Q01DX009 (ip), vehicle: saline with Tween-80): 118 % of control
- T/C (dose: 4.0 mg/kg/injection, schedule: Q01DX009 (ip), vehicle: saline with Tween-80): 179 % of control
- T/C (dose: 9.0 mg/kg/injection, schedule: Q01DX009 (ip), vehicle: saline with Tween-80): 109 % of control

SMILES: O=C(O)C1(c2ccccc2)CC1
- T/C [6]: 109 % of control
- T/C [7]: 90 % of control
- T/C [8]: 90 % of control

SMILES: CCCCCCCCCCCC(=O)CCCC
- T/C (dose: 100.0 mg/kg/injection, schedule: Q01DX009 (ip), vehicle: other): 110 % of control
- T/C (dose: 200.0 mg/kg/injection, schedule: Q01DX009 (ip), vehicle: other): 90 % of control

SMILES: c1nc(SSc2ncnc3nc[nH]c23)c2[nH]cnc2n1
- T/C (dose: 3.7 mg/kg/injection, schedule: Q04DX003 (ip), vehicle: saline): 87 % of control
- T/C (dose: 7.5 mg/kg/injection, schedule: Q04DX003 (ip), vehicle: saline): 91 % of control
- T/C (dose: 25.0 mg/kg/injection, schedule: Q04DX003 (ip), vehicle: saline with Tween-80): 100 % of control
- T/C (dose: 50.0 mg/kg/injection, schedule: Q04DX003 (ip), vehicle: saline): 120 % of control
- T/C [9]: 111 % of control
- T/C (dose: 100.0 mg/kg/injection, schedule: Q04DX003 (ip), vehicle: saline): 87 % of control
- T/C (dose: 150.0 mg/kg/injection, schedule: Q04DX003 (ip), vehicle: saline): 90 % of control
- T/C (dose: 225.0 mg/kg/injection, schedule: Q04DX003 (ip), vehicle: saline): 90 % of control
- T/C (dose: 335.0 mg/kg/injection, schedule: Q04DX003 (ip), vehicle: saline): 90 % of control

SMILES: Cc1cc2c(cc1C)C(O)C(N1CCN(C)CC1)CCC2 (stereo unspecified)
- T/C (dose: 50.0 mg/kg/injection, schedule: Q04DX003 (ip), vehicle: saline with Tween-80): 109 % of control
- T/C [9]: 100 % of control
- T/C [10]: 100 % of control

SMILES: O=C1CN(c2ccccc2)CC(=O)N2C(c3ccccc3)CCCN12 (stereo unspecified)
- T/C (dose: 50.0 mg/kg/injection, schedule: Q01DX005 (ip), vehicle: saline with Tween-80): 113 % of control
- T/C (dose: 100.0 mg/kg/injection, schedule: Q01DX005 (ip), vehicle: saline with Tween-80): 97 % of control
- T/C (dose: 200.0 mg/kg/injection, schedule: Q01DX005 (ip), vehicle: saline with Tween-80): 97 % of control

SMILES: C[C@@H]1CC2=CC(=O)CC[C@@H]2[C@H]2CC[C@@]3(C)[C@@H](CC[C@]3(C)O)[C@@H]21
- T/C [6]: 104 % of control
- T/C [9]: 100 % of control
- T/C [7]: 90 % of control

SMILES: O=C1NNC2CCCCC2O1 (stereo unspecified)
- T/C [11]: 94 % of control
- T/C [6]: 90 % of control

SMILES: COc1ccc(N=C(c2ccccc2)c2ccc([N+](=O)[O-])cc2)cc1
- T/C (dose: 12.0 mg/kg/injection, schedule: Q01DX009 (ip), vehicle: Klucel (hydroxypropylcellulose) (HPC)): 100 % of control
- T/C (dose: 25.0 mg/kg/injection, schedule: Q01DX009 (ip), vehicle: Klucel (hydroxypropylcellulose) (HPC)): 109 % of control
- T/C (dose: 50.0 mg/kg/injection, schedule: Q01DX009 (ip), vehicle: Klucel (hydroxypropylcellulose) (HPC)): 100 % of control and 122 % of control
- T/C [4]: 86 % of control
- T/C [5]: 90 % of control

SMILES: Cc1ccc(NCCN2CCCCC2)c2c(=O)c3ccccc3sc12
- T/C [4]: 115 % of control
- T/C (dose: 100.0 mg/kg/injection, schedule: Q04DX003 (ip), vehicle: Klucel (hydroxypropylcellulose) (HPC)): 115 % of control
- T/C [5]: 110 % of control
- T/C (dose: 200.0 mg/kg/injection, schedule: Q04DX003 (ip), vehicle: Klucel (hydroxypropylcellulose) (HPC)): 115 % of control
- T/C (dose: 264.0 mg/kg/injection, schedule: Q01DX009 (ip), vehicle: Klucel (hydroxypropylcellulose) (HPC)): 150 % of control
- T/C (dose: 264.0 mg/kg/injection, schedule: Q04DX003 (ip), vehicle: Klucel (hydroxypropylcellulose) (HPC)): 118 % of control and 120 % of control
- T/C (dose: 400.0 mg/kg/injection, schedule: Q04DX003 (ip), vehicle: Klucel (hydroxypropylcellulose) (HPC)): 122 % of control

SMILES: O=CNc1ccc(O)cc1
- T/C [9]: 104 % of control
- T/C [10]: 104 % of control
- T/C (dose: 400.0 mg/kg/injection, schedule: Q04DX003 (ip), vehicle: saline with Tween-80): 100 % of control

SMILES: COc1ccc2c(c1C)CCC1(CO)CC(C)=CCC21 (stereo unspecified)
- T/C [1]: 90 % of control
- T/C [2]: 90 % of control
- T/C [3]: 86 % of control

SMILES: S=C1NC2=C(CCC/C2=C\c2ccccc2)C(c2ccccc2)N1 (stereo unspecified)
- T/C [11]: 91 % of control
- T/C [6]: 96 % of control

SMILES: CCOC(=O)C(Cc1ccc(C)cc1)(NC(C)=O)C(=O)OCC
- T/C [6]: 92 % of control
- T/C [7]: 99 % of control
- T/C [8]: 101 % of control

SMILES: COc1ccc([C@@H]2c3cc4c(cc3C[C@H]3COC(=O)[C@@H]32)OCO4)cc1OC
- T/C (dose: 6.25 mg/kg/injection, schedule: Q01DX009 (ip), vehicle: saline with Tween-80): 104 % of control
- T/C (dose: 12.5 mg/kg/injection, schedule: Q01DX009 (ip), vehicle: saline with Tween-80): 116 % of control
- T/C (dose: 25.0 mg/kg/injection, schedule: Q01DX009 (ip), vehicle: saline with Tween-80): 121 % of control
